What was measured:
[1] = tested on: P. aeruginosa (ATCC 19429); assay: Galleria mellonella infection by P. aeruginosa, treatment survival; type: in vivo; conditions: 1 × 10^3 CFU P. aeruginosa, single dose 5 μg ciprofloxacin
red blood cells = conditions: 100 μg/ml peptide; ref de Latour et al., 2010; Dean et al., 2011; cited from earlier work

With `O=C(O)c1cn(C2CC2)c2cc(N3CCNCC3)c(F)cc2c1=O` [ciprofloxacin] the “effectiveness at prolonging survival vs infected control, in words” value [1] was “effective”.

For ATRA, the hemolysis (red blood cells) is listed as “no significant hemolysis”.

— publication PMC3131519 (Frontiers in Microbiology, 2011)
